Test [1] deals with bat FluA polymerase-vRNA promoter complex. The class given is binding.
Test [2] concerns the target FluB polymerase. The class given is binding, human influenza B/Memphis/13/03.
In test [3] the test system is bat FluA polymerase. The class given is binding.

From patent US20190252037A1 (priority 2016, published 2019) come the findings set out here.

Bounds are passed on as bounds.

A word on the Kd: it is the constant that tells how readily two partners part at equilibrium. “Pol II CTD peptide, four heptad repeats Tyr-Ser-Pro-Thr-SerP-Pro-Ser (28 amino acids), FAM-labelled at the N-terminal end for binding assays (Covalab) [28-mer SeP5 peptide]”: in test [1], the Kd came to 0.9 µM and the “higher affinity for Ser5 phosphorylated compared to non-phosphorylated CTD repeats” value is more than 10 fold. In addition, the Kd in test [2] was 2.9 µM. Moreover, in test [3], the “binding in the absence of the vRNA promotor” value is “independent of vRNA promoter binding”.
